Key:
[1] = target: T1, cloned human 5-HT1A-receptors (Homo sapiens, UniProt P08908); assay: Inhibition of 3H-5-CT binding to human 5-HT1A receptors; conditions: transfected HeLa cells (HA7), 15 minutes at 37° C., pH 7.7; for inhibition at 0.05 µM: at 50 nM
T1 construct: expressed in transfected cells; host or cells: HeLa cells (HA7)
T1 sequence (P08908 1-422): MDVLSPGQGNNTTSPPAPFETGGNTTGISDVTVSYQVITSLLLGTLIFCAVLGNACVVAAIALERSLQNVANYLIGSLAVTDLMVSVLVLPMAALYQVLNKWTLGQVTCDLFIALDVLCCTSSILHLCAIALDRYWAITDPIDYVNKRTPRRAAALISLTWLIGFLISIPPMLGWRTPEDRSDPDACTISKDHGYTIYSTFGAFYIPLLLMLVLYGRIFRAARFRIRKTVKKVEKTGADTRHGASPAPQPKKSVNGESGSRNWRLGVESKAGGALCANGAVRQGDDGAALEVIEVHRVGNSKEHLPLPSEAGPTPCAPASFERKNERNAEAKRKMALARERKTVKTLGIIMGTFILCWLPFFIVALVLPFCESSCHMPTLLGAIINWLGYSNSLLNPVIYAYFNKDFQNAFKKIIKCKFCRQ
Description: The affinity of the compounds of the invention to 5-HT1A receptors was determined by measuring the inhibition of binding of a radioactive ligand at 5-HT1A-receptors as described in the following test:
Inhibition of ^3H-5-CT Binding to Human 5-HT1A Receptors.
By this method, the inhibition by drugs of the binding of the 5-HT1A-agonist ^3H-5-carboxamido tryptamine (^3H-5-CT) to cloned human 5-HT1A-receptors stably expressed in transfected HeLa cells (HA7) (Fargin, A. et al. J. Biol. Chem. 1989, 264, 14848) is determined in vitro. The assay was performed as a modification of the method described by Harrington, M. A. et al. J. Pharmacol. Exp. Ther. 1994, 268, 1098. Human 5-HT1A-receptors (40 μg of cell homogenate) were incubated for 15 minutes at 37° C. in 50 mM Tris buffer at pH 7.7 in the presence of ^3H-5-CT. Non-specific binding was determined by including 10 μM of metergoline. The reaction was terminated by rapid filtration through Unifilter GF/B filters on a Tomtec Cell Harvester. Filters were counted in a Packard Top Counter.

[2] = target: T2, human cloned dopamine D4.2-receptors (Homo sapiens, UniProt P21917, DEL265-296); assay: Inhibition of the binding of 3H-YM-09151-2 to human dopamine D4 receptors; conditions: [3H]YM-09151-2 0.06 nM; for IC50: membranes of CHO-cells expressing human D4.2; for inhibition at 0.1 µM: at 100 nM, CHO-cell membranes, human D4.2
T2 construct: expressed in transfected cells; host or cells: CHO cells
T2 sequence (P21917 with tags, fused parts or gaps DEL265-296): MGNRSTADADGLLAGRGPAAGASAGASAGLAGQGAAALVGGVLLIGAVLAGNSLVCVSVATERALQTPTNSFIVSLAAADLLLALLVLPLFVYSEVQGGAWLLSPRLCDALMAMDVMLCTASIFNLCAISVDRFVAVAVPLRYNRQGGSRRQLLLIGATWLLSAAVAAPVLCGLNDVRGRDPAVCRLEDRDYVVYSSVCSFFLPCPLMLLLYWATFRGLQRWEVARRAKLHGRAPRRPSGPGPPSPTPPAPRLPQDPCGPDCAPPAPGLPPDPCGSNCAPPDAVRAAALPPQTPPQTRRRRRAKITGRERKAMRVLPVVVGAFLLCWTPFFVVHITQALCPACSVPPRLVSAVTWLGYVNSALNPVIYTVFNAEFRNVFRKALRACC
Description: Inhibition of the Binding of ^3H-YM-09151-2 to Human Dopamine D4 Receptors
By this method, the inhibition by drugs of the binding of [^3H]YM-09151-2 (0.06 nM) to membranes of human cloned dopamine D4.2-receptors expressed in CHO-cells is determined in vitro. Method modified from NEN Life Science Products, Inc., technical data certificate PC2533-10/96.

IC50 [1] [nM]	IC50 [2] [nM]	inhibition at 0.05 µM [1] [%]	inhibition at 0.1 µM [2] [%]	SMILES
2.4	1.1	–	–	Clc1ccccc1SCCCN1CCN(c2cccc3[nH]ccc23)CC1 [Compound 2a, 4-{4-[3-(2-Chloro-phenylsulfanyl)-propyl]-piperazin-1-yl}-1H-indole]
2.7	1.2	–	–	Brc1ccccc1SCCCN1CCN(c2cccc3[nH]ccc23)CC1 [Compound 2b, 4-(4-[3-(2-Bromo-phenylsulfanyl)-propyl]-piperazin-1-yl}-1H-indole]
6.4	1.6	–	–	Fc1ccc(OCCCCN2CCN(c3cccc4[nH]ccc34)CC2)c(Br)c1 [Compound 2d, 4-{4-[4-(2-Bromo-4-fluoro-phenoxy)-butyl]-piperazin-1-yl}-1H-indole]
4.5	2.2	–	–	Cc1cccc(Cl)c1SCCCCN1CCN(c2cccc3[nH]ccc23)CC1 [Compound 2e, 4-{4-[4-(2-Chloro-6-methyl-phenylsulfanyl)-butyl]-piperazin-1-yl}-1H-indole]
15	6.6	–	–	Fc1ccc(SCCN2CCN(c3cccc4[nH]ccc34)CC2)c(Cl)c1 [Compound 3a, 4-{4-[2-(2-Chloro-4-fluoro-phenylsulanyl)-ethyl]-piperazin-1-yl}-1H-indole]
9.3	0.52	–	–	Fc1ccc(SCCCN2CCN(c3cccc4[nH]ccc34)CC2)c(Cl)c1 [Compound 4a]
2.4	0.66	–	–	Fc1ccc(OCCCCN2CCN(c3cccc4[nH]ccc34)CC2)c(Br)c1 [Compound 4b, 4-{4-[4-(2-Bromo-4-fluoro-phenoxy)-butyl]-piperazin-1-yl}-1H-indole]
5.4	1.6	–	–	Fc1ccc(OCCCN2CCN(c3cccc4[nH]ccc34)CC2)c(F)c1 [Compound 4c]
7.1	1.8	–	–	Clc1cccc(Cl)c1SCCCCN1CCN(c2cccc3[nH]ccc23)CC1 [Compound 4d, 4-{4-[4-(2,6-Dichloro-phenylsulfanyl)-butyl]-piperazin-1-yl}-1H-indole]
4.9	2	–	–	Fc1ccc(OCCCN2CCN(c3cccc4[nH]ccc34)CC2)c(Cl)c1 [Compound 4e, 4-{4-[3-(2-Chloro-4-fluoro-phenoxy)-propyl]-piperazin-1-yl}-1H-indole]
5.8	3	–	–	Cc1cccc(Cl)c1SCCCCN1CCN(c2cccc3[nH]ccc23)CC1 [Compound 4f]
2.4	4.9	–	–	Fc1cc(Cl)c(OCCCCN2CCN(c3cccc4[nH]ccc34)CC2)c(Cl)c1 [Compound 4g, 4-{4-[4-(2,6-Dichloro-4-fluoro-phenoxy)-butyl]-piperazin-1-yl}-1H-indole]
1.4	5.4	–	–	Fc1cc(F)c(OCCCN2CCN(c3cccc4[nH]ccc34)CC2)c(Br)c1 [Compound 4h, 4-{4-[3-(2-Bromo-4,6-difluoro-phenoxy)-propyl]-piperazin-1-yl}-1H-indole]
1	16	–	–	Fc1cc(Cl)c(OCCCN2CCN(c3cccc4[nH]ccc34)CC2)c(Cl)c1 [Compound 4i, 4-{4-[3-(2,6-Dichloro-4-fluoro-phenoxy)-propyl]-piperazin-1-yl}-1H-indole]
17	23	–	–	Fc1cc(Br)cc(F)c1OCCCCN1CCN(c2cccc3[nH]ccc23)CC1 [Compound 4j, 4-{4-[4-(4-Bromo-2,6-difluoro-phenoxy)-butyl]-piperazin-1-yl}-1H-indole]
6.7	26	–	–	Fc1cc(Br)c(OCCCCN2CCN(c3cccc4[nH]ccc34)CC2)c(Br)c1 [Compound 4k, 4-{4-[4-(2,6-Dibromo-4-fluoro-phenoxy)-butyl]-piperazin-1-yl}-1H-indole]

IC50 [1] [nM]	IC50 [2] [nM]	inhibition at 0.05 µM [1] [%]	inhibition at 0.1 µM [2] [%]	SMILES
1.1	28	–	–	Brc1cc(Br)c(OCCCN2CCN(c3cccc4[nH]ccc34)CC2)c(Br)c1 [Compound 4l, 14-{4-[3-(2,4,6-Tribromo-phenoxy)-propyl]-piperazin-1-yl}-1H-indole]
1	39	–	–	Fc1cc(Br)cc(F)c1OCCCN1CCN(c2cccc3[nH]ccc23)CC1 [Compound 4m, 4-{4-[3-(4-Bromo-2,6-difluoro-phenoxy)-propyl]-piperazin-1-yl}-1H-indole]
0.72	230	–	–	CCC(=O)c1cc(F)c(OCCCN2CCN(c3cccc4[nH]ccc34)CC2)c(F)c1 [Compound 4n, 1-(3,5-Difluoro-4-{3-[4-(1H-indol-4-yl)-piperazin-1-yl]-propoxy}-phenyl)-propan-1-one]
0.72	32	–	–	N#Cc1cc(Br)c(OCCCN2CCN(c3cccc4[nH]ccc34)CC2)c(Br)c1 [Compound 4o, 3,5-Dibromo-4-{3-[4-(1H-indol-4-yl)-piperazin-1-yl]-propoxy}-benzonitrile]
36	13	–	–	Fc1cc(F)c(OCCN2CCN(c3cccc4[nH]ccc34)CC2)c(Br)c1 [Compound 4p, 4-{4-[2-(2-Bromo-4,6-difluoro-phenoxy)-ethyl]-piperazin-1-yl}-1H-indole]
3.5	7.2	–	–	Clc1cccc(Cl)c1SCCCN1CCN(c2cccc3[nH]ccc23)CC1 [Compound 4q, 4-{4-[3-(2,6-Dichloro-phenylsulfanyl)-propyl]-piperazin-1-yl}-1H-indole]
–	–	78	81	Cc1cccc(C)c1OCCN1CCN(c2cccc3[nH]ccc23)CC1 [Compound 5aa, 4-{4-[2-(2,6-Dimethyl-phenoxy)-ethyl]-piperazin-1-yl}-1H-indole]
–	–	83	95	Cc1cccc(C)c1SCCCCN1CCN(c2cccc3[nH]ccc23)CC1 [Compound 5ab, 4-{4-[4-(2,6-Dimethyl-phenylsulfanyl)-butyl]-piperazin-1-yl}-1H-indole]
–	–	85	83	Cc1ccc(SCCN2CCN(c3cccc4[nH]ccc34)CC2)c(C)c1 [Compound 5ac, 4-{4-[2-(2,4-Dimethyl-phenylsulfanyl)-ethyl]-piperazin-1-yl}-1H-indole]
–	4.1	76	–	Clc1cccc(SCCN2CCN(c3cccc4[nH]ccc34)CC2)c1Cl [Compound 5ad, 4-{4-[2-(2,3-Dichloro-phenylsulfanyl)-ethyl]-piperazin-1-yl}-1H-indole]
–	–	92	88	C=CCc1cccc(Cl)c1OCCN1CCN(c2cccc3[nH]ccc23)CC1 [Compound 5ae, 4-{4-[2-(2-Allyl-6-chloro-phenoxy)-ethyl]-piperazin-1-yl}1H-indole]
–	7.2	93	–	FC(F)(F)c1ccccc1SCCCN1CCN(c2cccc3[nH]ccc23)CC1 [Compound 5af, 4-{4-[3-(2-Trifluoromethyl-phenylsulfanyl)-propyl]-piperazin-1-yl}-1H-indole]
–	–	93	95	Clc1ccc(SCCCN2CCN(c3cccc4[nH]ccc34)CC2)cc1Cl [Compound 5ag, 4-{4-[3-(3,4-Dichloro-phenylsulfanyl)-propyl]-piperazin-1-yl}-1H-indole]
–	–	86	90	Cc1ccc(OCCCCN2CCN(c3cccc4[nH]ccc34)CC2)c(C)c1 [Compound 5ah, 4-{4-[4-(2,4-Dimethyl-phenoxy)-butyl]-piperazin-1-yl}-1H-indole]
–	–	93	90	CCc1ccccc1OCCCCN1CCN(c2cccc3[nH]ccc23)CC1 [Compound 5ai, 4-{4-[4-(2-Ethyl-phenoxy)-butyl]-piperazin-1-yl}-1H-indole]
